Results: US9561228B2 (Celgene Avilomics Research, Inc., priority 2013, dated 2017)

What was measured:
Type in all cases: cell-based
[1] = tested on: HCT116 cells (colorectal carcinoma); experiment: Inhibition of cancer cell proliferation, HCT116 (CellTiterGlo, 72 hours); conditions: Homo sapiens, HCT-116
In short: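 3000 cells per well exposed to 3-fold serial compound dilutions from 5,000 nM (two-fold solution, stock level) for 72 hours at 37° C. CellTiterGlo luminescence converted to cell number via a standard curve; percent inhibition vs untreated wells, GI50 by curve fit.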

[2] = tested on: ERK1/2 phosphorylation of p90RSK in HT29 cells; experiment: pRSK MSD Assay in HT29 cells; conditions: Homo sapiens, HT-29, read-out: ERK1/ERK2 PRSK MSD HT29 EC50
In short: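 Serum-starved HT29 cells (0.1% FBS overnight) treated with test compound for 120 min at 37° C, then lysed with protease and phosphatase inhibitors. Phospho-p90RSK quantified by MSD sandwich immunoassay: RSK capture antibody, phospho-RSK detection antibody plus Sulfo-tagged antibody, electrochemiluminescence read.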

[3] = tested on: ERK1/2 phosphorylation of p90RSK in HCT116 cells; experiment: Detection of total and phospho-RSK by MSD ELISA (HCT116); conditions: Homo sapiens, HCT-116, read-out: ERK1/ERK2 PRSK HCT116 EC50
In short: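 HCT116 cells treated with compound in RPMI/10% FBS for 2 h at 37° C, then lysed. Phospho-RSK (Ser380) and total RSK in lysates measured by MSD sandwich electrochemiluminescence ELISA as a readout of ERK1/2 activity.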

| Structure (SMILES) | GI50 [1] | EC50 [2] | EC50 [3] |
| --- | --- | --- | --- |
| C=CC(=O)Nc1cc(C)ccc1Nc1nc(Nc2cc(OC)nc(N3CC(O)C3)c2)ncc1C(F)(F)F [Compound I-328, N-(2-((2-((2-(3-hydroxyazetidin-1-yl)-6-methoxypyridin-4-yl)amino)-5-(trifluoromethyl)pyrimidin-4-yl)amino)-5-methylphenyl)acrylamide] | < 100 nM | < 100 nM | < 100 nM |
| C=CC(=O)Nc1cc(C)ccc1Nc1nc(Nc2cc(OC)nc(N(C)CCOC)c2)ncc1C(F)(F)F [Compound I-336, N-(2-((2-((2-methoxy-6-((2-methoxyethyl)(methyl)amino)pyridin-4-yl)amino)-5-(trifluoromethyl)pyrimidin-4-yl)amino)-5-methylphenyl)acrylamide] | 101 to 500 nM | < 100 nM | 101 to 500 nM |
| C=CC(=O)Nc1cc(C)ccc1Nc1nc(Nc2cc(OC)nc(N3CCN(C)CC3)c2)ncc1C(F)(F)F [Compound I-325, N-(2-((2-((2-methoxy-6-(4-methylpiperazin-1-yl)pyridin-4-yl)amino)-5-(trifluoromethyl)pyrimidin-4-yl)amino)-5-methylphenyl)acrylamide] | < 100 nM | 101 to 500 nM | < 100 nM |
| C=CC(=O)Nc1cc(C)ccc1Nc1nc(Nc2cc(NC3CC3)nc(OC)c2)ncc1C(F)(F)F [Compound I-337, N-(2-((2-((2-(cyclopropylamino)-6-methoxypyridin-4-yl)amino)-5-(trifluoromethyl)pyrimidin-4-yl)amino)-5-methylphenyl)acrylamide] | < 100 nM | < 100 nM | < 100 nM |
| C=CC(=O)Nc1ccccc1Nc1nc(Nc2ccnnc2)ncc1C(F)(F)F [Compound I-293, N-(2-((2-(Pyridazin-4-ylamino)-5-(trifluoromethyl)pyrimidin-4-yl)amino)phenyl)acrylamide] | 101 to 500 nM | 101 to 500 nM | < 100 nM |
| C=CC(=O)Nc1ccccc1Nc1nc(Nc2cc(OC)nc(N3CCCCC3)c2)ncc1C(F)(F)F [Compound I-282, N-(2-((2-((2-Methoxy-6-(piperidin-1-yl)pyridin-4-yl)amino)-5-(trifluoromethyl)pyrimidin-4-yl)amino)phenyl)acrylamide] | < 100 nM | 101 to 500 nM | < 100 nM |
| C=CS(=O)(=O)Nc1cc(C)ccc1Nc1nc(Nc2cc(OC)ncc2C)ncc1C(F)(F)F [Compound I-333, N-(2-((2-((2-methoxy-5-methylpyridin-4-yl)amino)-5-(trifluoromethyl)pyrimidin-4-yl)amino)-5-methylphenyl)ethenesulfonamide] | > 1000 nM | 101 to 500 nM | > 1000 nM |
| C=CC(=O)Nc1cc(C(F)(F)F)ccc1Nc1nc(Nc2cc(OC)ncc2C)ncc1C(F)(F)F [Compound I-323, N-(2-((2-((2-methoxy-5-methylpyridin-4-yl)amino)-5-(trifluoromethyl)pyrimidin-4-yl)amino)-5-(trifluoromethyl)phenyl)acrylamide] | 501 to 999 nM | < 100 nM | 101 to 500 nM |
